Results published in article PMC8903829 (eLife, 2022).

Legend:
Format in all cases: cell-based
[1] = target: T1, N1768D NaV1.6 persistent currents (Homo sapiens, UniProt Q9UQD0, N1768D); assay: Persistent current inhibition
T1 construct: expression vector containing the full-length cDNA coding for specific human and mouse sodium channel α-subunit; expressed in transfected cells; host or cells: Expi293F (transient, tetracycline-induced, pcDNA4/TO)
From the text: Elevated persistent and or resurgent currents are believed to underlie or contribute to the pathology of many sodium channel related pathologies ([Mason et al., 2019]; [Pan and Cummins, 2020]; [Potet et al., 2020]; [Tidball et al., 2020]; [Zaman et al., 2019]). In most conditions, normal NaV1.6 channels inactivate rapidly and nearly completely after opening.
(§1) Inorm(CPD)=(ICPD−Icontrol)/(ITTX−Icontrol).

hNaV1.6 [2] = target: T2, hNaV1.6 (Homo sapiens, UniProt Q9UQD0); assay: Qube 384 automated patch-clamp, inactivated-state inhibition; details: for hNav1.6 current in (352)/(Vehicle), mean: Inactivated (-45mV)
T2 construct: expression vector containing the full-length cDNA coding for specific human and mouse sodium channel α-subunit; expressed in transfected cells
Target sequence in this assay (Q9UQD0 whole entry): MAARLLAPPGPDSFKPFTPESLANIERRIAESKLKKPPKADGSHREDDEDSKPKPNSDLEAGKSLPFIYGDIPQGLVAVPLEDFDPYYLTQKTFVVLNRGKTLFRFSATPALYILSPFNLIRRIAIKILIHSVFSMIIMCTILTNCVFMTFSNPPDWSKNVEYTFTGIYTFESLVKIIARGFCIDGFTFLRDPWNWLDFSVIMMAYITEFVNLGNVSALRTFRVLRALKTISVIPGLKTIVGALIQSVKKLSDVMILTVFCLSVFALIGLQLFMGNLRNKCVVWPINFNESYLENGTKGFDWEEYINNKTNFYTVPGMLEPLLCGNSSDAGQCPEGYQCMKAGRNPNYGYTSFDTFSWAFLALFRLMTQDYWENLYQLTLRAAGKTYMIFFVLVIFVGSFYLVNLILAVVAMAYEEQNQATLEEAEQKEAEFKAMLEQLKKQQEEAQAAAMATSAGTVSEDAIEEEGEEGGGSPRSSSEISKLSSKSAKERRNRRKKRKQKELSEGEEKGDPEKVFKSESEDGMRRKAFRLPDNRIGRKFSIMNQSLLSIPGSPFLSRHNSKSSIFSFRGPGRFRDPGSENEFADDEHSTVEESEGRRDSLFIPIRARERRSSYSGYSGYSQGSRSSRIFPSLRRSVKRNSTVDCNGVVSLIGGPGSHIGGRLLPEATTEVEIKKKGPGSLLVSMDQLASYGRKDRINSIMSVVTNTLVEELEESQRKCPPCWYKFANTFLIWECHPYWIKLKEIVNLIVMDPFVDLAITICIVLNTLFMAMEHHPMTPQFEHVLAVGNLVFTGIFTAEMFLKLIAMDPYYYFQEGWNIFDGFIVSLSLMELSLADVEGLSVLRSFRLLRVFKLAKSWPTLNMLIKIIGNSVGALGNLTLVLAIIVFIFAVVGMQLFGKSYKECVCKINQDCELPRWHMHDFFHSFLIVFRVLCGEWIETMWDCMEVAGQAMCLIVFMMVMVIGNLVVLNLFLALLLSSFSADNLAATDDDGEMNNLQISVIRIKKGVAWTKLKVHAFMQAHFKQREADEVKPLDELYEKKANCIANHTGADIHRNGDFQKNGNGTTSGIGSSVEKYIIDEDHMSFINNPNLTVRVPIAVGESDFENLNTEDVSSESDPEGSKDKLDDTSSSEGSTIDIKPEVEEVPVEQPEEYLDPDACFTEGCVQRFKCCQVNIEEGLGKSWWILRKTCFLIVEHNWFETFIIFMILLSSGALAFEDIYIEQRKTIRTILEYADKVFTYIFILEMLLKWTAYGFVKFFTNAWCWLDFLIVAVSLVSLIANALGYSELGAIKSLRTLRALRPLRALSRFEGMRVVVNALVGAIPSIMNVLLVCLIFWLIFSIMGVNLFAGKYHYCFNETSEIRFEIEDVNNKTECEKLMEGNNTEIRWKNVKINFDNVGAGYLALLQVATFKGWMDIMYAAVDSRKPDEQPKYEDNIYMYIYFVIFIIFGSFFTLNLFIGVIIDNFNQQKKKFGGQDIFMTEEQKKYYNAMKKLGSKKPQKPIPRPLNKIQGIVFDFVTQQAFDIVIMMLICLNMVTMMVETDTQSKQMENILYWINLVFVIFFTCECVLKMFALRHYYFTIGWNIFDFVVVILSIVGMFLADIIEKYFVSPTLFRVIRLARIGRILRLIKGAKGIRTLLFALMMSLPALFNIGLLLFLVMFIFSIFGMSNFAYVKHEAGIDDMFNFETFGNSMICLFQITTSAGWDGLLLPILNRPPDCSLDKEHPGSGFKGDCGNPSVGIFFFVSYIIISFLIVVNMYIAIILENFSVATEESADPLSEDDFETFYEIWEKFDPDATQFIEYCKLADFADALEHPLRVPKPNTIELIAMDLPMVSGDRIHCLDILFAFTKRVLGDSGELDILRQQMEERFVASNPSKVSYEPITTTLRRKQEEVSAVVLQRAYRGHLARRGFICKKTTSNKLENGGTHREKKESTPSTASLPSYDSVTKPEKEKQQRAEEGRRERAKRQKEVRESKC

hNaV1.1 = target: T3, hNaV1.1 (Homo sapiens, UniProt P35498); assay: as above
T3 construct: expression vector containing the full-length cDNA coding for specific human and mouse sodium channel α-subunit; expressed in transfected cells

hNaV1.6 [3] = target: T2, hNaV1.6; assay: Automated patch-clamp, rested state 'Peak' current (Vh -120 mV)
From the text: Holding the membrane potential at –120 mV induces most channels to reside in the resting state. […] Holding the membrane potential at –45 mV encourages channels to transition into inactivated states. Brief hyperpolarizations allow rapid recovery from inactivation for channels that are not bound to drug followed by a short 20ms test pulse to –20 mV to measure currents from unbound channels (see Materials and methods for details).
as §1
Target sequence in this assay (Q9UQD0 whole entry): as above
Target sequence in this assay (Q92913 1-192 isoform Q92913-2 partner): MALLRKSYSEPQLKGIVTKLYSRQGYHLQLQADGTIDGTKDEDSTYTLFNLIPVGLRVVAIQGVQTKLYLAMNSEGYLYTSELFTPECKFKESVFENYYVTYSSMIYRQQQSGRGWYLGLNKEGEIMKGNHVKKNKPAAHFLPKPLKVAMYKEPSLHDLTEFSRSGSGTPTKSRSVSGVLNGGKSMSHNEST

T1 sequence (Q9UQD0 whole entry N1768D): as the sequence (Q9UQD0 whole entry) above, with N1768D counted along it
T1 sequence (Q92913 1-192 isoform Q92913-2 partner): as the sequence (Q92913 1-192 isoform Q92913-2 partner) above

SMILES: Cc1cc(S(=O)(=O)Nc2cscn2)c(F)cc1N(C)[C@H]1CCN(Cc2ccccc2)C1 [NBI-921352]
- N1768D current in (352)/(Vehicle), Persistent, mean ([1]; -5 Log M): 0.93
- N1768D current in (352)/(Vehicle), Persistent, mean ([1]; -5.47712 Log M): 0.92
- N1768D current in (352)/(Vehicle), Persistent, mean ([1]; -5.95424 Log M): 0.91
- N1768D current in (352)/(Vehicle), Persistent, mean ([1]; -6.43136 Log M): 0.87
- N1768D current in (352)/(Vehicle), Persistent, mean ([1]; -6.90848 Log M): 0.63
- N1768D current in (352)/(Vehicle), Persistent, mean ([1]; -7.38561 Log M): 0.44
- N1768D current in (352)/(Vehicle), Persistent, mean ([1]; -7.86274 Log M): 0.21
- N1768D current in (352)/(Vehicle), Persistent, mean ([1]; -8.33989 Log M): 0
- IC50 ([1]; non-inactivating current 10ms after initiation of test pulse): 59 nM
- IC50 (hNaV1.6 [2]): 51 nM
- hNav1.6 current in (352)/(Vehicle), mean (hNaV1.6 [2]; -5 Log M): 0.96
- hNav1.6 current in (352)/(Vehicle), mean (hNaV1.6 [2]; -5.47716 Log M): 0.91
- hNav1.6 current in (352)/(Vehicle), mean (hNaV1.6 [2]; -5.95429 Log M): 0.87
- hNav1.6 current in (352)/(Vehicle), mean (hNaV1.6 [2]; -6.47756 Log M): 0.83
- hNav1.6 current in (352)/(Vehicle), mean (hNaV1.6 [2]; -6.91009 Log M): 0.68
- hNav1.6 current in (352)/(Vehicle), mean (hNaV1.6 [2]; -6.95468 Log M): 0.66
- hNav1.6 current in (352)/(Vehicle), mean (hNaV1.6 [2]; -7.38722 Log M): 0.57
- hNav1.6 current in (352)/(Vehicle), mean (hNaV1.6 [2]; -7.4318 Log M): 0.52
- hNav1.6 current in (352)/(Vehicle), mean (hNaV1.6 [2]; -7.85387 Log M): 0.25
- hNav1.6 current in (352)/(Vehicle), mean (hNaV1.6 [2]; -8.30103 Log M): 0.16
- hNav1.6 current in (352)/(Vehicle), mean (hNaV1.6 [2]; -8.39794 Log M): 0.12
- hNav1.6 current in (352)/(Vehicle), mean (hNaV1.6 [2]; -9.34679 Log M): 0.01
- hNav1.1 current in (352)/(Vehicle), mean (hNaV1.1; -4 Log M): 0.68
- hNav1.1 current in (352)/(Vehicle), mean (hNaV1.1; -4.30103 Log M): 0.57
- hNav1.1 current in (352)/(Vehicle), mean (hNaV1.1; -4.47713 Log M): 0.44
- hNav1.1 current in (352)/(Vehicle), mean (hNaV1.1; -4.77814 Log M): 0.3
- hNav1.1 current in (352)/(Vehicle), mean (hNaV1.1; -4.95425 Log M): 0.25
- hNav1.1 current in (352)/(Vehicle), mean (hNaV1.1; -5.25524 Log M): 0.16
- hNav1.1 current in (352)/(Vehicle), mean (hNaV1.1; -5.43133 Log M): 0.12
- hNav1.1 current in (352)/(Vehicle), mean (hNaV1.1; -5.73236 Log M): 0.07
- hNav1.1 current in (352)/(Vehicle), mean (hNaV1.1; -5.90833 Log M): 0.07
- hNav1.1 current in (352)/(Vehicle), mean (hNaV1.1; -6.20971 Log M): 0.04
- hNav1.1 current in (352)/(Vehicle), mean (hNaV1.1; -6.3851 Log M): 0.03
- hNav1.1 current in (352)/(Vehicle), mean (hNaV1.1; -6.68613 Log M): 0.05
- hNav1.1 current in (352)/(Vehicle), mean (hNaV1.1; -6.86328 Log M): 0.01
- hNav1.1 current in (352)/(Vehicle), mean (hNaV1.1; -7.16115 Log M): 0.04
- hNav1.1 current in (352)/(Vehicle), mean (hNaV1.1; -7.33724 Log M): 0
- hNav1.1 current in (352)/(Vehicle), mean (hNaV1.1; -7.63827 Log M): 0.01
- IC50 (hNaV1.6 [3]): 36000 nM
- hNav1.6 current in (352)/(Vehicle), Rested (-120mV), mean (hNaV1.6 [3]; -4 Log M): 0.8706
- hNav1.6 current in (352)/(Vehicle), Rested (-120mV), mean (hNaV1.6 [3]; -4.47713 Log M): 0.4353
- hNav1.6 current in (352)/(Vehicle), Rested (-120mV), mean (hNaV1.6 [3]; -4.95425 Log M): 0.1765
- hNav1.6 current in (352)/(Vehicle), Rested (-120mV), mean (hNaV1.6 [3]; -5.43133 Log M): 0.09412
- hNav1.6 current in (352)/(Vehicle), Rested (-120mV), mean (hNaV1.6 [3]; -5.90833 Log M): -0.01176
- hNav1.6 current in (352)/(Vehicle), Rested (-120mV), mean (hNaV1.6 [3]; -6.3851 Log M): -0.02353
- hNav1.6 current in (352)/(Vehicle), Rested (-120mV), mean (hNaV1.6 [3]; -6.86328 Log M): 0.1176
- hNav1.6 current in (352)/(Vehicle), Rested (-120mV), mean (hNaV1.6 [3]; -7.33724 Log M): 0.05882
